Assay results taken from patent EP4707393A1, “DOUBLE-STRANDED SIRNA, CONJUGATE THEREOF AND USE THEREOF” (CMS Research & Development Pte. Ltd., priority 2023, dated 2024).

What follows are substances tested on human LPA gene (Genbank number: NM_005577.4) (assay: Inhibitory activity against LPA mRNA, psiCHECK-2 dual-luciferase reporter vector in Huh7 cells). Details: Huh7 cells transfected with LPA_psiCHECK-2 plasmid, RNAiMAX transfection.
Format: cell-based
Method: A stock solution was prepared by dissolving in PBS and stored at -20 °C.
The human LPA gene (Genbank number: NM_005577.4) was cloned into the psiCHECK™-2 vector.
Huh7 cells were cultured in DMEM (Gibco-11995-065, 500 mL) medium, supplemented with FBS (ExCellBio-FSP500, 57 mL), Penicillin-Streptomycin solution (Hyclone-SV30010, 5.7 mL), GlutaMAX™ (Gibco-35050-061, 5.7 mL) and Non-Essential Amino Acids Solution (Gibco-11140050, 5.7 mL).
On Day 1, a method for transfection of the LPA_PSICHECK (TM)-2 plasmid is briefly described as follows: Huh7 cells were washed with DPBS, followed by digestion with 0.05% trypsin, gently pipetted into single cells in DMEM containing 10% FBS, and counted. Plasmid DNA was transferred into Huh7 cells using Fugene HD. The transfected cells were seeded into 96-well plates at a density of 10,000 cells per well, with 100 µL culture medium per well. The cells were incubated overnight in a 5% CO2 incubator at 37 °C.
On Day 2, the test compounds were diluted serially with PBS to 3 concentrations.
RNAiMAX transfection reagent was prepared by blending homogeneously with Opti-MEM at a ratio of RNAiMAX: Opti-MEM=3:47 in a 15 mL centrifuge tube as needed. The compounds were mixed with the RNAiMAX/Opti-MEM (1:1) and incubated for 15 min. The compound-containing RNAiMAX/Opti-MEM mixture was diluted 10-fold with fresh medium and blended homogeneously.
The medium in each well was aspirated, and then 100 µL of the fresh compound-containing medium was added, and then incubated in a 5% CO2, 37 °C incubator.
Experimental procedures refer to DUAL-GLO® Dual Luciferase Assay System instructions, briefly described as follows: Taking out the cells from the incubator, aspirating and discarding the supernatant, adding 75µL fresh culture medium and 75µL detection reagent, shaking for 10 minutes in the dark, and after the cells had been fully lysed, transfering100µL sample to an opaque whiteboard for detecting the Firefly luminescence signal; adding 50 µL Dual-Glo®Stop & Glo® test reagent to each well and detecting the Renilla luciferase signal after shaking for 10 minutes in the dark. The ratio of the reporter signal to the internal control reporter signal was calculated for each well.
[formula] % Inhibition = (1-Sampleratio/RNAiMAXcontrolratio) × 100% [formula]

Row | Substance | EC50 [nM]
1 | Z8: siRNA conjugate: sense SEQ ID NO:32, ligand D08 at 3' end of sense strand, antisense SEQ ID NO:56 (sense CCCTTATTGTTATACG; antisense ATCCCTCGTANAACAATAAGGGGCTGTT; 2'-OMe/2'-F modified, ligand at sense 3' end, full pattern not given here) | 0.81
2 | Z9: siRNA conjugate: sense SEQ ID NO:33, ligand D08 at 3' end of sense strand, antisense SEQ ID NO:56 (sense CCCTTATTGTTATACG; antisense ATCCCTCGTANAACAATAAGGGGCTGTT; ligand D08 at sense 3' end; listed as RNA; modified_base 1..2: mod_base = OTHER; note = 2'-O-methylcytidine; modified_base 3: mod_base = OTHER; modified_base 4..5: mod_base = OTHER; note = 2'-O-methyluridine; modified_base 6: mod_base = OTHER; note = 2'-O-me; modified_base 1: mod_base = OTHER; note = 2'-O-methyladenosine; modified_base 2: mod_base = OTHER; note = 2'-O-met) | 1.77
3 | Z10: siRNA conjugate: sense SEQ ID NO:34, ligand D08 at 3' end of sense strand, antisense SEQ ID NO:56 (sense CCCTTATTGTTATACG; antisense ATCCCTCGTANAACAATAAGGGGCTGTT; 2'-OMe/2'-F modified, ligand at sense 3' end, full pattern not given here) | 2.11
4 | Z11: siRNA conjugate: sense SEQ ID NO:27, ligand D08 at 3' end of sense strand, antisense SEQ ID NO:59 (sense CCCTTATTGTTATACG; antisense ATCCCTCGTANAACAATAAGGGGCTGCC; 2'-OMe/2'-F modified, ligand at sense 3' end, full pattern not given here) | 0.56
5 | Z12: siRNA conjugate: sense SEQ ID NO:27, ligand D08 at 3' end of sense strand, antisense SEQ ID NO:60 (sense CCCTTATTGTTATACG; antisense ATCCCTCGTANAACAATAAGGGGCTG; 2'-OMe/2'-F modified, ligand at sense 3' end, full pattern not given here) | 0.32
6 | Z13: siRNA conjugate: sense SEQ ID NO:27, ligand D08 at 3' end of sense strand, antisense SEQ ID NO:61 (sense CCCTTATTGTTATACG; antisense ATCCCTCGTANAACAATAAGGGGCTGTT; 2'-OMe/2'-F modified, ligand at sense 3' end, full pattern not given here) | 0.42
7 | Z14: siRNA conjugate: sense SEQ ID NO:27, ligand D08 at 3' end of sense strand, antisense SEQ ID NO:62 (sense CCCTTATTGTTATACG; antisense ATCCCTCGTANAACAATAAGGGGCTGTT; 2'-OMe/2'-F modified, ligand at sense 3' end, full pattern not given here) | 1.59
8 | Z15: siRNA conjugate: sense SEQ ID NO:27, ligand D08 at 3' end of sense strand, antisense SEQ ID NO:63 (sense CCCTTATTGTTATACG; antisense ATCCCTCGTANAACAATAAGGGGCTG; 2'-OMe/2'-F modified, ligand at sense 3' end, full pattern not given here) | 0.23
9 | Z17: siRNA conjugate: sense SEQ ID NO:36, ligand D01 at 3' end of sense strand, antisense SEQ ID NO:63 (sense NNCCCCTTATTGTTATACN; antisense ATCCCTCGTANAACAATAAGGGGCTG; 2'-OMe/2'-F modified, ligand at sense 3' end, full pattern not given here) | 1.5
10 | Z18: siRNA conjugate: sense SEQ ID NO:36, ligand D01 at 3' end of sense strand, antisense SEQ ID NO:61 (sense NNCCCCTTATTGTTATACN; antisense ATCCCTCGTANAACAATAAGGGGCTGTT; 2'-OMe/2'-F modified, ligand at sense 3' end, full pattern not given here) | 0.25
11 | Z20: siRNA conjugate: sense SEQ ID NO:27, ligand D01 at 3' end of sense strand, antisense SEQ ID NO:56 (sense CCCTTATTGTTATACG; antisense ATCCCTCGTANAACAATAAGGGGCTGTT; 2'-OMe/2'-F modified, ligand at sense 3' end, full pattern not given here) | 0.51
12 | Z21: siRNA conjugate: sense SEQ ID NO:36, ligand D01 at 3' end of sense strand, antisense SEQ ID NO:64 (sense NNCCCCTTATTGTTATACN; antisense TCTCGTANAACAATAAGGGGCTGTT; 2'-OMe/2'-F modified, ligand at sense 3' end, full pattern not given here) | 0.44
13 | Z22: siRNA conjugate: sense SEQ ID NO:38, ligand D18 at 3' end of sense strand, antisense SEQ ID NO:64 (sense NNCCCCTTATTGTTATACNA; antisense TCTCGTANAACAATAAGGGGCTGTT; 2'-OMe/2'-F modified, ligand at sense 3' end, full pattern not given here) | 0.28
14 | Z23: siRNA conjugate: sense SEQ ID NO:39, ligand D18 at 3' end of sense strand, antisense SEQ ID NO:64 (sense NNCCCCTTATTGTTATACGN; antisense TCTCGTANAACAATAAGGGGCTGTT; 2'-OMe/2'-F modified, ligand at sense 3' end, full pattern not given here) | 0.12
15 | Z25: siRNA conjugate: sense SEQ ID NO:41, ligand D18 at 3' end of sense strand, antisense SEQ ID NO:64 (sense NNCCCCTTATTGTTATACGNGA; antisense TCTCGTANAACAATAAGGGGCTGTT; ligand D18 at sense 3' end; listed as RNA; modified_base 1: mod_base = OTHER; note = n is invAb; modified_base 2: mod_base = OTHER; note = n is R; modified_base 3..6: mod_base = OTHER; note = 2'-O-methylcytidine; modified_base 7: mod_base = OTHER; note = 2'-O-methyluridine; modified_ba; modified_base 3: mod_base = OTHER; modified_base 4: mod_base = OTHER; note = 2'-fluorocytidine; modified_base 5: mod_base = OTHER; note = 2'-O-methylg) | 0.68
16 | Z26: siRNA conjugate: sense SEQ ID NO:42, ligand D18 at 3' end of sense strand, antisense SEQ ID NO:65 (sense CCCTTATTGTTANACGA; antisense TCTCGTATNACAATAAGGGGCTT; ligand D18 at sense 3' end; listed as RNA; modified_base 1..2: mod_base = OTHER; note = 2'-O-methylcytidine; modified_base 3: mod_base = OTHER; modified_base 4: mod_base = OTHER; note = 2'-O-methyluridine; modified_base 5: mod_base = OTHER; note = 2'-fluorou; modified_base 1: mod_base = OTHER; note = 2'-fluorocytidine; note = 2'-O-methylg) | 2.83
17 | Z36: siRNA conjugate: sense SEQ ID NO:50, ligand D18 at 3' end of sense strand, antisense SEQ ID NO:75 (sense CCTGCCAAGCTTGGTCATCTA; antisense TAGATGNCCAAGCTTGGCNGGTT; ligand D18 at sense 3' end; listed as RNA; modified_base 1..2: mod_base = OTHER; note = 2'-O-methylcytidine; modified_base 3: mod_base = OTHER; note = 2'-O-methyluridine; modified_base 4: mod_base = OTHER; note = 2'-O-methylguanosine; modified_base 5..6: mod_base = OTHER; note = 2'-O-m; modified_base 1: mod_base = OTHER; note = E-type vinylphosphonate-modified 2'-O-methyluridine; modified_base 2: mod_base = OTHER; note = 2'-fluoroadenosine; modified_base 4: m) | 0.23
